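Cultured in 96-well plates, cells were exposed to test compound for 48 hours across five concentrations. The concentration for full growth arrest is given as TGI.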
How the values were obtained:
Assay in all cases: NCI-60 cell line screen, 48 h
SF-539 CNS = test system: SF-539 CNS
786-0 renal = test system: 786-0 renal
MCF7 breast = test system: MCF7 breast
HT29 colon = test system: HT29 colon
NCI-H23 lung = test system: NCI-H23 lung
ACHN renal = test system: ACHN renal
SK-MEL-5 melanoma = test system: SK-MEL-5 melanoma
M14 melanoma = test system: M14 melanoma
K-562 leukemia = test system: K-562 leukemia
SN12C renal = test system: SN12C renal
LOX IMVI melanoma = test system: LOX IMVI melanoma
KM12 colon = test system: KM12 colon
A498 renal = test system: A498 renal
HOP-92 NSCLC = test system: HOP-92 NSCLC

Compound: N#Cc1c(N2CCN(c3ccc([N+](=O)[O-])cc3)CC2)[n+](=O)c2ccccc2n1[O-]
- TGI (SF-539 CNS): > 100 µM
- TGI (786-0 renal): > 100 µM
- TGI (MCF7 breast): > 100 µM
- TGI (HT29 colon): > 100 µM
- TGI (NCI-H23 lung): > 100 µM
- TGI (ACHN renal): > 100 µM
- TGI (SK-MEL-5 melanoma): > 100 µM
- TGI (M14 melanoma): > 100 µM
- TGI (K-562 leukemia): > 100 µM
- TGI (SN12C renal): > 100 µM
- TGI (LOX IMVI melanoma): > 100 µM
- TGI (KM12 colon): > 100 µM

Compound: N#Cc1ccc(C2NN=CC23C(=O)c2ccccc2OC3c2ccccc2)cc1 (stereo not given)
- TGI (SF-539 CNS): > 100 µM
- TGI (786-0 renal): > 100 µM
- TGI (MCF7 breast): 87.4 µM
- TGI (HT29 colon): > 100 µM
- TGI (NCI-H23 lung): > 100 µM
- TGI (ACHN renal): > 100 µM
- TGI (SK-MEL-5 melanoma): 74.8 µM
- TGI (M14 melanoma): > 100 µM
- TGI (A498 renal): > 100 µM
- TGI (K-562 leukemia): > 100 µM
- TGI (SN12C renal): > 100 µM
- TGI (LOX IMVI melanoma): > 100 µM
- TGI (KM12 colon): > 100 µM

Compound: CN(CCCn1ccnc1[N+](=O)[O-])CCCn1ccnc1[N+](=O)[O-]
- TGI (SF-539 CNS): > 100 µM
- TGI (786-0 renal): > 100 µM
- TGI (MCF7 breast): > 100 µM
- TGI (HT29 colon): > 100 µM
- TGI (NCI-H23 lung): > 100 µM
- TGI (ACHN renal): > 100 µM
- TGI (SK-MEL-5 melanoma): > 100 µM
- TGI (M14 melanoma): > 100 µM
- TGI (A498 renal): > 100 µM
- TGI (K-562 leukemia): > 100 µM
- TGI (SN12C renal): > 100 µM
- TGI (LOX IMVI melanoma): > 100 µM
- TGI (KM12 colon): > 100 µM

Compound: CCCC(=O)NC(Nc1ccc(S(=O)(=O)Nc2ccc(OC)nn2)cc1)(C(F)(F)F)C(F)(F)F
- TGI (SF-539 CNS): > 100 µM
- TGI (786-0 renal): > 100 µM
- TGI (HT29 colon): > 100 µM
- TGI (NCI-H23 lung): > 100 µM
- TGI (ACHN renal): > 100 µM
- TGI (SK-MEL-5 melanoma): > 100 µM
- TGI (M14 melanoma): > 100 µM
- TGI (A498 renal): > 100 µM
- TGI (HOP-92 NSCLC): > 100 µM
- TGI (K-562 leukemia): > 100 µM
- TGI (SN12C renal): > 100 µM
- TGI (LOX IMVI melanoma): > 100 µM
- TGI (KM12 colon): > 100 µM

Compound: CCCCOC(=O)c1cc(C(=CCC[C@H]2CC[C@@]3(C)[C@@H](CC[C@@H]4[C@@H]3CC[C@]3(C)[C@@H](C(C)CCCC(C)C)CC[C@@H]43)C2)c2cc(Cl)c(O)c(C(=O)OCCCC)c2)cc(Cl)c1O (stereo not given in full)
- TGI (786-0 renal): > 50 µM
- TGI (HT29 colon): > 50 µM
- TGI (NCI-H23 lung): > 50 µM
- TGI (SK-MEL-5 melanoma): > 50 µM
- TGI (A498 renal): > 50 µM
- TGI (HOP-92 NSCLC): > 50 µM
- TGI (K-562 leukemia): > 5 µM
- TGI (SN12C renal): > 50 µM
- TGI (LOX IMVI melanoma): > 50 µM
- TGI (KM12 colon): > 50 µM

Compound: O=c1c2c(c1=O)-c1ccccc1CN2
- TGI (SF-539 CNS): > 100 µM
- TGI (786-0 renal): > 100 µM
- TGI (HT29 colon): > 100 µM
- TGI (NCI-H23 lung): > 100 µM
- TGI (ACHN renal): > 100 µM
- TGI (SK-MEL-5 melanoma): > 100 µM
- TGI (M14 melanoma): > 100 µM
- TGI (A498 renal): > 100 µM
- TGI (HOP-92 NSCLC): > 100 µM
- TGI (K-562 leukemia): > 100 µM
- TGI (SN12C renal): > 100 µM
- TGI (LOX IMVI melanoma): > 100 µM
- TGI (KM12 colon): > 100 µM

Compound: Cc1ccc(-c2cc(-c3ccco3)c(C#N)c(=O)n2C2OC(CO)C(O)C(O)C2O)cc1 (stereo not given)
- TGI (HT29 colon): > 100 µM
- TGI (NCI-H23 lung): > 100 µM
- TGI (ACHN renal): > 100 µM
- TGI (SK-MEL-5 melanoma): 45.7 µM
- TGI (M14 melanoma): > 100 µM
- TGI (A498 renal): 50.9 µM
- TGI (K-562 leukemia): > 100 µM
- TGI (SN12C renal): > 100 µM
- TGI (LOX IMVI melanoma): > 100 µM
- TGI (KM12 colon): > 100 µM

Compound: CC[C@H](C)[C@H](NC(=O)[C@@]1(O)[C@H](O)[C@]2(CC)C=CCN3CC[C@@]4(c5cc(Br)c(OC)cc5N(C)[C@@H]14)[C@@H]32)C(=O)OC
- TGI (SF-539 CNS): 91.3 µM
- TGI (786-0 renal): > 100 µM
- TGI (MCF7 breast): > 100 µM
- TGI (HT29 colon): 30.5 µM
- TGI (NCI-H23 lung): > 100 µM
- TGI (ACHN renal): > 100 µM
- TGI (SK-MEL-5 melanoma): 87.4 µM
- TGI (M14 melanoma): 84.5 µM
- TGI (A498 renal): > 100 µM
- TGI (K-562 leukemia): > 100 µM
- TGI (SN12C renal): > 100 µM
- TGI (LOX IMVI melanoma): 35.5 µM
- TGI (KM12 colon): > 100 µM

Compound: CC(=O)Nc1ccc(Sc2nnc(NC(C)=O)s2)cc1
- TGI (SF-539 CNS): > 100 µM
- TGI (MCF7 breast): > 100 µM
- TGI (ACHN renal): > 100 µM
- TGI (SK-MEL-5 melanoma): > 100 µM
- TGI (M14 melanoma): > 100 µM
- TGI (K-562 leukemia): > 100 µM
- TGI (SN12C renal): > 100 µM
- TGI (KM12 colon): > 100 µM

— PubChem BioAssay (NCI)
